# No end group written: not given here.
# Experiments:
# skin tissue = assay: Skin tissue histopathological analysis (H&E); type: in vivo, mice; conditions: 24 h after infection and treatment
# Method: Skin tissue histopathological analysis. […] The fur on the back of the mice was removed and the mice were infected and treated as described in the Skin abscess infection mouse model section. After 24 h, mice were euthanized for tissue collection. Samples were pre-fixed in individual cassettes, then transferred to a container filled with 70% EtOH for slicing and staining. Next, the samples were placed on glass slides for microscopy analysis. We collected the tissue from three mice per condition analyzed.
# bacterial strains = assay: Antimicrobial activity over the panel of strains; type: cell-based; conditions: range over strains tested
# Method: Initially, the antimicrobial activity was determined by liquid growth inhibition assays, as previously described by Pedron et al.^62. Briefly, Peptone Broth and Potato Dextrose Broth (Invitrogen) were used for antibacterial and antifungal assays, respectively. Two-fold serial dilutions of peptides (0.09-50 μmol L^−1) and microorganisms (Serratia marcescens ATCC 4112, Enterobacter cloacae β-12, Micrococcus luteus A270, Bacillus megaterium ATCC 10778, Bacillus subtilis ATCC 6633, Candida albicans MDM8, and Candida tropicalis IOC 4560) were incubated at 37° C. for 18 h (for bacteria) or 24 h (for fungi), and microbial growth was assessed by absorbance measurements at 595 nm. Experiments were performed in three biological repeats.
# (§1) Method. The minimal inhibitory concentration (MIC) against the ESKAPE pathogens was determined using the broth microdilution method^81, 82 in Luria-Bertani (LB) medium. The MIC value was defined as the lowest concentration of peptide at which no microbial growth was observed. A. baumannii ATCC19606, E. coli ATCC11775, E. coli AIC221, E. coli AIC222, K. pneumoniae ATCC13883, S. aureus ATCC12600 P. aeruginosa PAO1, and P. aeruginosa PA14 were incubated on agar plates, and after 24 h, three isolated colonies were inoculated to 5 mL of Luria-Bertani (LB) broth and maintained at 37° C. overnight with shaking. Peptides were then added to 96-well polystyrene microtiter plates at concentrations ranging from 0 to 128 μmol L^−1, and 5×10^5 CFU mL^−1 of each bacterium was inoculated in each well. The plates were incubated at 37° C. for 24 h. Bacterial growth was measured using a microplate reader at 610 nm. Three independent replicates were performed.
# P. aeruginosa = assay: MIC against P. aeruginosa; type: cell-based; conditions: strain not given
# Method: as §1
substance,measurement,setting,value
"FLGAIGNVLKSIL-NH2 [TV, Phe-Leu-Gly-Ala-Ile-Gly-Asn-Val-Leu-Lys-Ser-Ile-Leu]","tissue morphology / toxicity, H&E staining",skin tissue,Neither TV nor VmCT1 changed the tissue's morphology
"FLGALWNVAKSVF-NH2 [VmCT1, Phe-Leu-Gly-Ala-Len-Trp-Asu-Val-Ala-Lys-Ser-Val-Phe, reference compound]","tissue morphology / toxicity, H&E staining",skin tissue,Neither TV nor VmCT1 changed the tissue's morphology
"ILGAILNVLKSLG-NH2 [PV, Ile-Leu-Gly-Ala-Ile-Leu-Asn-Val-Leu-Lys-Ser-Leu-Gly]",MIC range of the peptide over the strains,bacterial strains,3.1 to 64 µM
same,MIC against P. aeruginosa,P. aeruginosa,128 µM
